According to paper PMC5152921, “Evolutionary and Functional Diversification of the Vitamin D Receptor-Lithocholic Acid Partnership” (PLoS ONE, 2016):

What was measured:
Human VDR = target: T1, Human VDR (Homo sapiens, UniProt P11473); experiment: Transient transactivation assay (XREM-Luc, HepG2); format: cell-based; details: 100 μM LCA
T1 sequence (P11473 1-427): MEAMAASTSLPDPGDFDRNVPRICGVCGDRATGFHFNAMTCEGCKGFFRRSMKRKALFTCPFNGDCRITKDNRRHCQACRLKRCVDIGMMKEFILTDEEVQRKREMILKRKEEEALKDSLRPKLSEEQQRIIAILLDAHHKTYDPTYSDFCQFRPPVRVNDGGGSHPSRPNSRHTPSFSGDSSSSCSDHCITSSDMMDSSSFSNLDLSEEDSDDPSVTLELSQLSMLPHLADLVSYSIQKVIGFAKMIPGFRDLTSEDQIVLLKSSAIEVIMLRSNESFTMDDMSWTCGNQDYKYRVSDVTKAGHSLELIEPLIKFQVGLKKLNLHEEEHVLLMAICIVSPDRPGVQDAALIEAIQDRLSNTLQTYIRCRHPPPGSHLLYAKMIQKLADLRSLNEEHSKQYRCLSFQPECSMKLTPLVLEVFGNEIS
Experimental: HepG2 cells (American Type Culture Collection #HB-8065) were cultured in T75 flasks with vented caps (Corning Life Sciences, Corning, NY) using Minimum Essential Medium (MEM) with phenol red supplemented with 10% fetal bovine serum, 1 mM sodium pyruvate, and 1X MEM non-essential amino acids. Cells were maintained following standard protocols in a 5% CO2 incubator set at 37°C, and split when 80–90% confluent.
For the transient transactivation assays, HepG2 cells were seeded in 96-well tissue culture plates at a density of 2.5x10^4 cells per well in complete phenol red-free MEM, and allowed to recover overnight. Transfections were performed the following day using Lipofectamine 2000 (Life Technologies, Grand Island, NY) as described previously. For functional comparisons, 89.7 ng/well of full-length pSG5-VDR was co-transfected with 19.2 ng/well human XREM-Luc reporter and 4.5 ng/well of pRL-CMV as an internal luciferase control. Coregulator studies included the addition of 18.3 ng/well of human coregulators (pCDNA-RXRWT, pCDNA-RXRAF2, pSG5-SRC1, pSG5-GRIP1 or pSG5-ACTR) where indicated. […] Controls include 120 nM 1,25D3 as a positive control, and ethanol as a vehicle control. Twenty-four hours post-exposure cells were tested for luciferase activity using the Dual-Glo Luciferase Assay System (Promega Corporation, Madison, WI) according to the manufacturer’s protocols. Luciferase data were first normalized to the pRL-CMV internal luciferase control. […] To calculate the impact of coregulators on VDR transactivation, VDR response in the presence of coregulators was normalized to VDR alone. All experiments were repeated 3 times and conducted as groups of 4 replicate wells. VDR response in the absence of coregulators was analyzed using a 1-way ANOVA followed by Dunnett’s multiple comparisons test. To examine the effects of different coregulators on VDR activation, data were analyzed using a 2-way ANOVA followed by Bonferroni’s multiple comparisons test in GraphPad Prism (GraphPad Inc, San Diego, CA).

Zebrafish VDRβ = target: T2, Zebrafish VDRβ (Danio rerio, UniProt Q1L673); experiment: Mammalian 2-hybrid assay (VDR-coregulator interaction, HepG2); format: cell-based; set-up: expressed in transfected cells; host or cells: HepG2; details: 100 μM LCA
T2 sequence (Q1L673 1-422): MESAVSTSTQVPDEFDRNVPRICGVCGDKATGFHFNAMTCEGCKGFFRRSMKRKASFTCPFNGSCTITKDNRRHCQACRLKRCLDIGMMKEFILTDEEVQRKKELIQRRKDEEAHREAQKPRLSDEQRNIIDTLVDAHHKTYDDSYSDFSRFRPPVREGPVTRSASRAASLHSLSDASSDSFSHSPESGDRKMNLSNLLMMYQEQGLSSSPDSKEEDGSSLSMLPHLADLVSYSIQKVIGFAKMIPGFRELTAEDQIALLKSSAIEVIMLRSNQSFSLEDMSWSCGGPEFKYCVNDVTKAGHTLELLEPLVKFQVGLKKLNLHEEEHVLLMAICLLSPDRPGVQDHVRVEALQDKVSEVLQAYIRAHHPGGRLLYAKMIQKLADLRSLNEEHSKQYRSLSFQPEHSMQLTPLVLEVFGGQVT
Text: Prey constructs included full-length VDRs fused to the herpes simplex VP16 activation domain (pVP16-VDR). Bait constructs consisted of either full-length wild-type human RXR (pM-RXRWT), a truncated human RXR mutant (pM-RXRAF2), or the defined NR box of each member of the SRC/p160 family (pM-SRC1_241-386, pM-GRIP1_479-767, or pM-ACTR392-1005) fused to the yeast Gal4 DNA-binding domain. Reporters included the Gal4 luciferase reporter (5xGal4-TATA-Luc) and pRL-CMV as an internal luciferase control.
HepG2 cells were seeded into 96-well tissue culture plates as described above and transfected with Lipofectamine 2000 the following day. Each well received 33.6 ng pVP16-VDR, 33.6 ng pM-coregulator (where indicated), 126.6 ng 5XGal4-TATA-Luc, and 3 ng pRL-CMV. […] Positive controls were treated with 1,25D3 and vehicle controls were treated with ethanol. Luciferase activity was measured 24 hours post-exposure using the Dual-Glo Luciferase Assay System described above. Raw luciferase data were normalized to the pRL-CMV luciferase control. VDR-coregulator response was normalized to the pVP16-VDR in the absence of bait constructs. Results were analyzed using a two-way ANOVA followed by Bonferroni’s multiple comparisons test in Prism (GraphPad Inc, San Diego, CA). All experiments were replicated 3 times and conducted as groups of 4 replicate wells.

SMILES: C[C@H](CCC(=O)O)[C@H]1CC[C@H]2[C@@H]3CC[C@@H]4C[C@H](O)CC[C@]4(C)[C@H]3CC[C@]12C [LCA, 5β-cholanic acid-3α-ol]
- Effect of exogenous human RXRWT on VDR transactivation (Human VDR; co-transfected human RXRWT, vs VDR alone): significantly enhanced transactivation
- Effect of RXRWT+SRC1 or RXRWT+GRIP1 on VDR transactivation (Human VDR; compared to either coregulator individually): significantly enhanced VDR transactivation
- VDR-RXRWT interaction (heterodimerization) (Zebrafish VDRβ; bait human RXRWT, presence and absence of SRC1): not observed
- VDR-SRC1 interaction (Zebrafish VDRβ; cotransfection of RXRWT): strong VDR-SRC1 interactions
